Laboratory results reported in patent publication US8436006B2, “2-amino-quinazoline derivatives useful as inhibitors of β-secretase (BACE)” (Jansssen Pharmaceutica N.V., priority 2004, dated 2013).

Tests used:
β-secretase (BACE) [1] = target: T1, β-secretase (BACE) (Homo sapiens, UniProt P56817); assay: BACE % Inhibition Assay (Example 161), (Aedens)-[…]-(Dabcyl K-amide) substrate; format: biochemical; conditions: % error ±10%
T1 construct: purchased Panvera
Description: The following reagents were used in this assay: sodium acetate, PEG8000 (Sigma), DMSO, HEPES, (Aedens)-[…]-(Dabcyl K-amide) substrate, β-secretase (BACE) (Panvera), and 96-well plate (HE microplate, Molecular Devices).
The substrate stock solution was prepared in DMSO as a 10 mg/mL solution. The substrate working solution was prepared by diluting the 10 mg/mL stock solution with substrate assay buffer to a final concentration of 300 μg/mL. The β-secretase (BACE) working solution was prepared by diluting a 0.83 mg/mL BACE stock solution with enzyme assay buffer to a final concentration of 4 μg/mL.
Test compounds were dissolved in DMSO to 10 mM.
The screening procedure for this assay was as follows: 15 μL of BACE working solution was pipetted into each well of a 96-well plate. To each well was then pipetted 2 μL of test compound at the selected concentration. Test compound and BACE were then mixed with a pipettor and incubated for 20 min at room temperature. To each well was then added 10 μL of the substrate working solution. The plates were then incubated for 1 hour at room temperature.
The procedure for the blank was as follows. 15 μL of assay buffer was pipetted into each well to be used as a blank control. To each well was then added 2 μL of vehicle and 10 μL of substrate working solution. The plates were then incubated for 1 hour at room temperature.
The procedure for the positive control was as follows: 15 μl of BACE working solution was pipetted into each well to be used as a positive control. To each well was then pipetted 2 μL of vehicle. Vehicle and BACE were then mixed with a pipettor and incubated for 20 min at room temperature. To each well was then added 10 μL of the substrate working solution. The plates were then incubated for 1 hour at room temperature.
For test compounds, % inhibition was determined at each concentration as follows: % Inhibition=[[…]][FI(positive control)−FI(negative control)]

β-secretase (BACE) [2] = target: T1, β-secretase (BACE); assay: BACE FS1% Inhibition Assay (Example 160); format: biochemical
Description: The following reagents were used in this assay: sodium acetate, PEB8000 (Sigma), DMSO, HEPES, FS1 substrate [[…]], β-secretase (BACE) (Panvera), and 96-well plate (HE microplate, Molecular Devices). […] The FS1-substrate stock solution was prepared in DMSO as a 10 mg/mL solution. The FS1-substrate working solution was prepared by diluting the 10 mg/mL stock solution with substrate assay buffer to a final concentration of 300 μg/mL. The β-secretase (BACE) working solution was prepared by diluting a 0.83 mg/mL BACE stock solution with enzyme assay buffer to a final concentration of 4 μg/mL. Test compounds were dissolved in DMSO to 10 mM. […] The screening procedure for this assay was as follows: 15 μL of BACE working solution was pipetted into each well of a 96-well plate. To each well was the pipetted 2 μL of test compound at the selected concentration. Test compound and BACE were then mixed with a pipettor and incubated for 20 min at room temperature. To each well was then added 10 μL of the FS1 substrate working solution. The plates were then incubated for 1 hour at room temperature. […] The procedure for the blank was as follows. 15 μL of assay buffer was pipetted into each well to be used as a blank control. To each well was then added 2 μL of vehicle and 10 μL of FS1-substrate working solution. The plates were then incubated for 1 hour at room temperature. […] The procedure for the positive control was as follows: 15 μL of BACE working solution was pipetted into each well to be used as a positive control. To each well was then pipetted 2 μL of vehicle. Vehicle and BACE were then mixed with a pipettor and incubated for 20 min at room temperature. To each well was then added 10 μL of the FS1 substrate working solution. The plates were then incubated for 1 hour at room temperature. […] For test compounds, % inhibition was determined at each concentration as follows: [formula]

T1 sequence (P56817 46-501): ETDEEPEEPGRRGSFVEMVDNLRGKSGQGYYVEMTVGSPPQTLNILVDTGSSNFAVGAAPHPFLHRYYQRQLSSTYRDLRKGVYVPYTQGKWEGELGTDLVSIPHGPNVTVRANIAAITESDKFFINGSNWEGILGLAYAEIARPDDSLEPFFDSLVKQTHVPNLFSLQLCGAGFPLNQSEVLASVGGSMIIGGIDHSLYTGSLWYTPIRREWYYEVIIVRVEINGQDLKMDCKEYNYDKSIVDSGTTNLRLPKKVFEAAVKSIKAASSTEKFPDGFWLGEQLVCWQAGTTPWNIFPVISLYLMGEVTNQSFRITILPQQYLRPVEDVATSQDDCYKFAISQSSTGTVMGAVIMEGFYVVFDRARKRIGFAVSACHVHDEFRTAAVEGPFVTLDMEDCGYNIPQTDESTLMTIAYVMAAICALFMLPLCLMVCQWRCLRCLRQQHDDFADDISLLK

% Inhibition (FS) (β-secretase (BACE) [2]; 0.3 μM test compound)	% Inhibition (FS) (β-secretase (BACE) [2]; 1 μM test compound)	% Inhibition (FS) (β-secretase (BACE) [2]; 3 μM test compound)	Structure (SMILES)	also measured
–	–	–	CCCC(CNC(=O)C1CCCCC1)N1Cc2cc(Oc3ccccc3)ccc2N=C1N (stereo not shown) [Compound 343]	% Inhibition (β-secretase (BACE) [1]; 0.3 μM test compound): 81%
–	–	–	NC1=Nc2ccc(Oc3ccccc3)cc2CN1C(CCNC(=O)C1CCCCC1)C1CCCCC1 (stereo not shown) [Compound 391]	% Inhibition (β-secretase (BACE) [1]; 0.3 μM test compound): 35%; % Inhibition (β-secretase (BACE) [1]; 1 μM test compound): 93%; % Inhibition (β-secretase (BACE) [1]; 3 μM test compound): 115%
–	–	–	NC1=Nc2ccc(Oc3ccccc3)cc2CN1C(CCNC(=O)C1CCCC1)C1CCCCC1 (stereo not shown) [Compound 392]	% Inhibition (β-secretase (BACE) [1]; 0.3 μM test compound): 75%; % Inhibition (β-secretase (BACE) [1]; 3 μM test compound): 120%
–	–	–	NC1=Nc2ccc(Oc3ccccc3)cc2CN1C(CNC(=O)C1CCCCC1)c1ccccc1 (stereo not shown) [Compound 342]	% Inhibition (β-secretase (BACE) [1]; 0.3 μM test compound): 50%; % Inhibition (β-secretase (BACE) [1]; 1 μM test compound): 93%
–	–	–	CCCC(CNC(=O)OC(C)(C)C)N1Cc2cc(Oc3ccccc3)ccc2N=C1N (stereo not shown) [Compound 318]	% Inhibition (β-secretase (BACE) [1]; 0.3 μM test compound): 32%; % Inhibition (β-secretase (BACE) [1]; 1 μM test compound): 70%; % Inhibition (β-secretase (BACE) [1]; 3 μM test compound): 103%
38%	97%	–	COC(=O)C1CCCC(N(C)C(=O)CCC(C2CCCCC2)N2Cc3cc(Oc4ccccc4)ccc3N=C2N)C1 (mixture of isomers) [Compound 777]	–
–	–	–	CCOC(=O)C1CCC(N(C)C(=O)CCC(C2CCCCC2)N2Cc3cc(Oc4ccccc4)ccc3N=C2N)CC1 (stereo not shown) [Compound 763]	% Inhibition (FS) (β-secretase (BACE) [2]; 0.3 μM test compound, 0.3 µM): <30%; % Inhibition (FS) (β-secretase (BACE) [2]; 1 μM test compound, 1 µM): 84%
78%	99%	–	Cc1ccccc1-c1ccc2c(c1)CN(CCNC(=O)CC(C)C(F)(F)F)C(N)=N2 (stereo not shown) [Compound 679]	–
66%	97%	–	CCCCC(CC)C(=O)NCCN1Cc2cc(-c3ccccc3C)ccc2N=C1N (stereo not shown) [Compound 662]	–
–	–	–	NC1=Nc2ccc(Oc3ccccc3)cc2CN1C(CNC(=O)CCC1CCCC1)C1CCCCC1 (stereo not shown) [Compound 366]	% Inhibition (β-secretase (BACE) [1]; 0.3 μM test compound): 64%
<30%	<30%	<30%	CC(=O)N1CCC(C(=O)NCCN2Cc3cc(C4=CCCCC4)ccc3N=C2N)CC1 [Compound 705]	–
<30%	56%	97%	CNC(=O)C1CCC(N(C)C(=O)CCC(C2CCCCC2)N2Cc3cc(Oc4ccccc4)ccc3N=C2N)CC1 (stereo not shown) [Compound 765]	–
<30%	<30%	84%	Cc1ccccc1-c1ccc2c(c1)CN(CCNC(=O)C1CCC(C(F)(F)F)CC1)C(N)=N2 (stereo not shown) [Compound 694]	–
<30%	<30%	72%	COc1ccccc1-c1ccc2c(c1)CN([C@@H](CCC(=O)N(C)Cc1csc(-c3ccccc3)n1)C1CCCCC1)C(N)=N2 [Compound 716]	–
<30%	62%	–	COC(=O)Cc1cccc(CN(C)C(=O)CCC(C2CCCCC2)N2Cc3cc(Oc4ccccc4)ccc3N=C2N)c1 (stereo not shown) [Compound 775]	–
<30%	<30%	<30%	CN(C(=O)CCC(C1CCCCC1)N1Cc2cc(Oc3ccccc3)ccc2N=C1N)C1CCC(c2nn[nH]n2)CC1 (stereo not shown) [Compound 770]	–
<30%	<30%	<30%	NC1=Nc2ccc(-c3ccc4ccccc4c3)cc2CN1CCNC(=O)C1CCC1 [Compound 663]	–
<30%	36%	81%	NC1=Nc2ccc(-c3ccccc3F)cc2CN1CCNC(=O)C1CCC(C(F)(F)F)CC1 (stereo not shown) [Compound 688]	–
35%	35%	78%	CN(Cc1csc(-c2ccccc2)n1)C(=O)CC[C@@H](C1CCCCC1)N1Cc2cc(-c3ccccc3F)ccc2N=C1N [Compound 722]	–
–	–	130%	CN(C(=O)CCC(C1CCOCC1)N1Cc2cc(Oc3ccccc3)ccc2N=C1N)C1CCC(C(=O)O)CC1 (stereo not shown) [Compound 743]	–

% Inhibition (FS) (β-secretase (BACE) [2]; 0.3 μM test compound)	% Inhibition (FS) (β-secretase (BACE) [2]; 1 μM test compound)	% Inhibition (FS) (β-secretase (BACE) [2]; 3 μM test compound)	Structure (SMILES)	also measured
<30%	<30%	63%	COc1ccccc1-c1ccc2c(c1)CN(CCNC(=O)C1CCOCC1)C(N)=N2 [Compound 697]	–
67%	100%	–	CC(CC(=O)NCCN1Cc2cc(-c3ccccc3F)ccc2N=C1N)C(F)(F)F (stereo not shown) [Compound 681]	–
35%	<30%	<30%	NC1=Nc2ccc(-c3ccc4ccccc4c3)cc2CN1CCNC(=O)C12CC3CC(CC(C3)C1)C2 [Compound 665]	–
<30%	71%	–	CN(CC(=O)O)C(=O)CCC(C1CCCCC1)N1Cc2cc(Oc3ccccc3)ccc2N=C1N (stereo not shown) [Compound 767]	–
<30%	<30%	<30%	CC(C)CCC(=O)NCCN1Cc2cc(-c3ccc4ccccc4c3)ccc2N=C1N [Compound 668]	–
64%	86%	–	CC(CC(=O)NCCN1Cc2cc(-c3ccccc3Cl)ccc2N=C1N)C(F)(F)F (stereo not shown) [Compound 683]	–
<30%	30%	–	COc1ccccc1-c1ccc2c(c1)CN([C@@H](CCC(=O)N(C)Cc1cc(C)no1)C1CCCCC1)C(N)=N2 [Compound 718]	–
<30%	<30%	51%	CC(=O)N1CCC(C(=O)NCCN2Cc3cc(-c4ccccc4Cl)ccc3N=C2N)CC1 [Compound 691]	–
<30%	61%	–	CN(C(=O)CCC(C1CCCCC1)N1Cc2cc(Oc3ccccc3)ccc2N=C1N)C1CCC(C#N)CC1 (stereo not shown) [Compound 769]	–
<30%	<30%	<30%	CC(=O)N1CCC(C(=O)NCCN2Cc3cc(-c4ccccc4)ccc3N=C2N)CC1 [Compound 702]	–
<30%	<30%	<30%	CN(C(=O)CCC(C1CCCCC1)N1Cc2cc(Oc3ccccc3)ccc2N=C1N)c1ccc(C(=O)O)cc1 (stereo not shown) [Compound 766]	–
–	–	–	CCOC(=O)C1CCC(N(C)C(=O)CCC(C2CCCCC2)N2Cc3cc(Oc4ccccc4)ccc3N=C2N)CC1 (stereo not shown) [Compound 737]	% Inhibition (FS) (β-secretase (BACE) [2]; 0.3 μM test compound, 0.3 µM): 22%; % Inhibition (FS) (β-secretase (BACE) [2]; 1 μM test compound, 1 µM): 34%; % Inhibition (FS) (β-secretase (BACE) [2]; 3 μM test compound, 3 µM): 97%
<30%	<30%	<30%	NC1=Nc2ccc(-c3cnc4ccccc4c3)cc2CN1CCNC(=O)C12CC3CC(CC(C3)C1)C2 [Compound 672]	–
33%	38%	78%	NC1=Nc2ccc(-c3ccccc3)cc2CN1CCNC(=O)CCC(F)(F)F [Compound 684]	–
106%	118%	128%	CC(C)C(CNC(=O)C12CC3CC(CC(C3)C1)C2)N1Cc2cc(Oc3ccccc3)ccc2N=C1N (stereo not shown) [Compound 562]	–
33%	82%	–	NC1=Nc2ccc(-c3ccccc3Cl)cc2CN1CCNC(=O)C1CCOCC1 [Compound 689]	–
<30%	30%	<30%	NC1=Nc2ccc(-c3cnc4ccccc4c3)cc2CN1CCNC(=O)C1CCCC1 [Compound 671]	–
65%	96%	120%	NC1=Nc2ccc(Oc3ccccc3)cc2CN1CCNC(=O)C1(c2ccc(Cl)cc2)CCCC1 [Compound 196]	–
<30%	77%	–	CN(Cc1cccc(CC(=O)O)c1)C(=O)CCC(C1CCCCC1)N1Cc2cc(Oc3ccccc3)ccc2N=C1N (stereo not shown) [Compound 778]	–
